Reference: US8916686B2, “TDF-related compounds and analogs thereof” (Thrasos Innovation, Inc., priority 2004, dated 2014)
Read-outs that look alike come from different tables or passages of the source.

Key:
[1] = test system: HK-2 cells; assay: Apoptosis detection using Annexin V immunostaining after cisplatin; assay type: cell-based, human; conditions: 10 uM cisplatin; 500 uM compound prophylactically or therapeutically
Protocol: Apoptosis and cell viability are quantified using AnnexinV-FITC and propidium iodide staining of HK-2 cells following cisplatin treatment Immortalized PTEC-derived HK-2 cells (ATCC number CRL-2190) are cultured in serum-free keratinocyte medium (GIBCO number 17005-042) supplemented with EGF and BPE for 48 hours (Ryan et al. 1994 Kidney Int 45:48-57). Medium is aspirated and cells are washed with PBS and incubated in the dark for 15 min at room temperature with 10 μl of media binding agent and 1.25 μl of FITC conjugated AnnexinV. Propidium iodide (10 μl) is added, and samples are analyzed immediately. Quantification of Annexin V-FITC and propidium iodide signals is performed by fluorescence microscopy (Axiovert 135; Carl Zeiss). Phase contrast images are observed using transmitted light. Apoptotic cells show cytoplasmic staining and viable cells remain unstained (FIG. 14A-FIG. 14D).

[2] = molecular target: ALK-3 (Homo sapiens, UniProt P36894); assay: Radioligand receptor binding assay (competition with 125I-labeled TDF-1)
Chain of ALK-3 (P36894 24-532, species assumed): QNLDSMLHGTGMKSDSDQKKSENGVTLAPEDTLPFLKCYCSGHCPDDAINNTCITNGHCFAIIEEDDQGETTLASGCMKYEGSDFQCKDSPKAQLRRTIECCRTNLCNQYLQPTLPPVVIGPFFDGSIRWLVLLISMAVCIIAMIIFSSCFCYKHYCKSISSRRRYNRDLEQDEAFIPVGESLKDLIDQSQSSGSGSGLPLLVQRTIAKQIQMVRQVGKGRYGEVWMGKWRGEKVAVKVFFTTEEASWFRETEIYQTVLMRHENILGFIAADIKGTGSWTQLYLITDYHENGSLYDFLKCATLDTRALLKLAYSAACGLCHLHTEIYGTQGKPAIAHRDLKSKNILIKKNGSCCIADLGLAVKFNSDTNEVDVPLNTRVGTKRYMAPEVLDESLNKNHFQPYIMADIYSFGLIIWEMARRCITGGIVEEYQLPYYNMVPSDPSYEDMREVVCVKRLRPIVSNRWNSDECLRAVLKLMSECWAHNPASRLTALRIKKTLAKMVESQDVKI
From the text: General protocol: These assays are based on competition between ^125I-labeled TDF-1 (BMP-7 or OP-1) and candidate TDFRP compounds or unlabeled TDF-1 for binding to respective receptors (ALK-3, ALK-6 or BMPR-2). In brief, the procedure involves immobilization of receptor on 96 well Removawell plates, blocking the wells with 3% BSA in PBS and subsequently washing the wells. Increasing concentrations of unlabeled TDF-1 or TDFRP compounds or control (unlabeled TDF-1) prepared in binding buffer are then added. Incubate plate for 1 hour at room temperature, and then add a fixed amount of ^125I-labeled TDF-1 (250,000 to 350,000 cpm) to the wells and further incubate in cold (4° C.) for 20 hours. Aspirate the contents of the wells and wash the wells four times with a wash buffer, and count the receptor bound ^125I-labeled TDF-1 in an auto gamma counter.
Using this procedure, TDFRP compound binding to select ALK receptors are assessed. Accordingly, TDFRP compounds that preferentially bind select ALK receptors can be identified. For example, TDFRP compounds that preferentially bind to ALK-3 receptor compared with binding to other ALK receptors, e.g., ALK-6 (FIG. 1 and FIG. 11).

[3] = test system: rat after ligation of the coronary artery; assay: LAD occlusion model of myocardial injury (ischemia/reperfusion); assay type: in vivo
Protocol: The efficacy of compound SEQ ID #45 in ameliorating the effects of myocardial ischemia was investigated in the rat after ligation of the coronary artery. […] unmanipulated rats, sorted into two large groups by initial body weight (>300 g pre-surgery) were evaluated. Fourteen rats underwent surgery on week, 12 rats underwent surgery on week 2 and rats were sorted into 3 treatment groups: Group 1, PBS; Group 2, positive control TDF-1; Group 3, test article SEQ ID #45 (see Table X).
Three days prior to surgery, a serum sample was collected from the tail vein of each rat (pre-bleed). On the day of surgery, each rat was administered compound intravenously 2 hr prior to surgery. Surgery was performed sequentially after intubation and ventilation with 0.5% isofluorane anesthetic. Lead II ECG was monitored throughout the surgery. A thoracotomy was performed and the main left coronary artery was occluded for 20 min using a snare technique (FIG. 16). Successful occlusion of the artery was confirmed by ST elevation in lead II ECG within the first 5 minutes of ligation, and by frequent ventricular arrhythmia after 10 minutes of ligation. The snare was released to restore blood flow. The original suture loop was left in place for subsequent re-occlusion on Day 7. After initiation of reperfusion, the chest cavity was closed with 2 layers of suture. Rats were weaned from the ventilator and observed until fully conscious and mobile. Antibiotic (QD) and analgesic (Q8D) were provided. Additional serum samples were collected 6, 24, 72 and 120 hours post occlusion. Additional compound, positive control or vehicle treatments were delivered by intravenous injection in the tail vein at 24, 72 and 120 hours post occlusion.
On Day 7, each rat was anesthetized (ketamine:xyline), the chest cavity re-opened and a terminal blood sample (1 ml) was withdrawn from the abdominal vein. Gross pathology (i.e. inflammation) was noted and graded on a 4 point inflammation scale: 0=no inflammation, 1=slight, 2=moderate, 3=severe and 4=complete pericarditis. The left coronary artery was then re-occluded using the existing stitch and a concentrated solution of Evans Blue dye in saline (20 mg/ml; 0.5 ml/rat) was injected into the heart apex to stain the non-ischemic cardiac tissue blue. The heart was then arrested by injection of a saturated solution of potassium chloride into the right ventricle. The heart was then excised, wrapped in cellophane and stored at −20° C. for 1.5 hour. The cold heart was cut into 10 cross-sectional slices (2 mm/slice) and each section was numbered and incubated separately in triphenyltetrazolium chloride (1% TTC in PBS) for 10 minutes at 37° C. prior to fixing in 4% formaldehyde. Subsequently, each slice was photographed. For each slice, the “area at risk (AR)” and the “area occupied by necrosis (AN)” were measured by morphometry. The ratio of AN to AR is a measure of the degree of damage resulting from the occlusion (FIG. 17A-FIG. 17B).

[4] = test system: rat osteosarcoma (17/2.8) cells; assay: Rat osteosarcoma (ROS) cell-based alkaline phosphatase assay; conditions: 0.02-200 uM, 2 days; relative to BMP-7 standard
Protocol: BMP interactions with Type I and Type II receptors can induce alkaline phosphatase activity, a marker for osteoblast activity, in ROS cells. An assay procedure as described earlier (Maliakal, J.C., Asahina, I., Hauschka, P. V., and Sampath, T. K. (1994) Growth factors 11, 227-234) was used to determine the biological activities of TDFRP compounds. In a typical experiment, rat osteosarcoma (17/2.8) cells are plated in 96 well plates (3.0×10^4 cells/well) and incubated overnight at 37 C in 5-6% CO2 incubator. The next day, healthy and confluent cells are treated with increasing concentrations of BMP-7 standard (1-10,000 ng/ml) served as positive control or TDFRP compounds (0.02-200 uM) prepared in medium containing 1% FBS and incubated for 2 days at 37 C in 5-6% CO2 incubator. The cellular content of alkaline phosphatase activity is determined by the method of Reddi and Huggins (Reddi, A. H., and Huggins, C. B (1972) Proc. Natl. Acad. Sci. USA 69, 1601-1605). Enzyme estimations are performed in 96 well plates. Following removal of culture medium, cells are washed with pre-warmed PBS (150 ul) and incubated in 100 ul of pre-warmed 1% Triton X-100 for 30 minutes at 37 C. Plates are centrifuged for 10 minutes at full speed, and recovered samples (15 ul) are assayed for enzyme activity by adding 90 ul p-nitrophenyl phosphate (Sigma) as a substrate in 0.05 M glycine-NaOH buffer, pH 9.3 and incubating for 20 minutes at 37 C. The reaction is stopped by adding 75 ul of 0.2 N NaOH/well and absorbance at 405/490 nm is measured on a Dynatech MR 700 plate reader. Results are expressed as relative activities compared to a BMP-7 standard.

## CYFDDSSNVLCKKYRS [SEQ ID NO 45]
[1]
  cisplatin-induced apoptosis: inhibits cisplatin-induced apoptosis
[2]
  differential binding to Type I receptors (ALK-3 compared to ALK-6): selectively binds to ALK-3
[2]; listed as SEQ ID NO:45
  differential binding to Type I receptors (ALK-3 compared to ALK-6): binds preferentially to BMP type I receptors (ALK3)
[3]; LAD occlusion model
  degree of cardiac inflammation: reduces the degree of cardiac inflammation
  necrotic area to area at risk ratio (IA/AR): reduces the necrotic area to area at risk ratio (IA/AR)
[3]; day 7, 10 mg/kg i.v., 4 point inflammation scale
  reduction in inflammation score as compared to PBS-treated animals: 78%
[3]; day 7, compound 10 mg/kg i.v., rhmBMP-7 160 μg/kg i.v.
  reduction in AN/AR ratio as compared to PBS-treated animals: 84%
[3]; myocardial ischemia and reperfusion injury
  inflammation and cytotoxic effects toward cardiomyocytes following myocardial infarction: ameliorate inflammation and cytotoxic effects toward cardiomyocytes
[4]
  induction of alkaline phosphatase activity: did not induce alkaline phosphatase activity
